Reference: article PMC8634879, “Design, Synthesis, and Biological Evaluation of Pyrano[2,3-c]-pyrazole–Based RalA Inhibitors Against Hepatocellular Carcinoma” (Frontiers in Chemistry, 2021)

Experiments:
RalB = molecular target: T1, RalB (Homo sapiens, UniProt P11234); assay: ELISA-based RalB activity assay (RalBP1-coated plates, lysates of compound-treated cells); assay type: biochemical; settings: 1 μM compound; % control = active (RalBP1-bound) RalB remaining
T1 construct: expressed in transfected cells; host or cells: HepG2 (from b6; the methods paragraph names no cell line)
T1 sequence (P11234 1-203 limits assumed): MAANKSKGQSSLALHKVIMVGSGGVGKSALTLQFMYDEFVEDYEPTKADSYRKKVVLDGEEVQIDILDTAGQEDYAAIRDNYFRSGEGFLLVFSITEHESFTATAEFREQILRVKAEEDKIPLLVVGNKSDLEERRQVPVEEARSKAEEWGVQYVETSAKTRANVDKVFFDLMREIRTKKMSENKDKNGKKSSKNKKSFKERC
Description: (§1) The in vitro RalA/B bioactivity assays were performed following methods outlined in previous reports. ([Yan et al., 2016]; [Zhang et al., 2018]; [Walsh et al., 2019]; [Bum-Erdene et al., 2020]). In brief, the lysates of the test compound or vehicle-treated cells were cleared using cold centrifugation, and supernatants were collected. An RalBP1 solution was added to 96-well plates and incubated for 1–2 h, and then the plates were washed thrice using ELISA buffer. Next, cellular lysates were added, and samples were incubated overnight at 4°C. Then, ice-cold mouse anti-FLAG antibody was added, and samples were incubated for one more hour. After subsequent washing with ELISA buffer thrice, the HRP-conjugated anti-mouse antibody was added, and samples were incubated for another hour. Then, the HRP substrate was added. Antigen–antibody reactions were quenched by the addition of sulfuric acid (2 mol/L). Remaining RalA/B was detected by the OD450 values which were collected by using a plate reader. Cell proliferation assays, colony formation assays, apoptosis assays, GST pulldown, and Western blotting were used following methods outlined in our previous reports. ([Zhou et al., 2015]; [Zhang et al., 2016]; [Yang et al., 2017]; [He et al., 2019]). Autophagy levels and protein immunoblotting were used following the methods mentioned in our previous reports ([Pan et al., 2018]; [Wang et al., 2018]; [Hao et al., 2019]; [Wang et al., 2019]; [Peng et al., 2020]). Detailed experimental procedures are described in supporting materials.

RalA = molecular target: T2, RalA (Homo sapiens, UniProt P11233); assay: ELISA-based RalA activity assay (RalBP1-coated plates, lysates of compound-treated cells); assay type: biochemical; settings: 1 μM compound; % control = activity remained
T2 construct: expressed in transfected cells; host or cells: HepG2 (from b6; the methods paragraph names no cell line)
T2 sequence (P11233 1-203 limits assumed): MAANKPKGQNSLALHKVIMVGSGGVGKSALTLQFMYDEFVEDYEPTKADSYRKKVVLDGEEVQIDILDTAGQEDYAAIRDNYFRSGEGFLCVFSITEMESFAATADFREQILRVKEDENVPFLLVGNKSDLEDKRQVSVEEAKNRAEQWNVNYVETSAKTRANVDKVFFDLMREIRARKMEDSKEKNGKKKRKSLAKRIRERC
Description: as §1

Huh-7 cells = assay: Cell proliferation assay (MTT), Huh-7; assay type: cell-based; settings: Homo sapiens, Table 1, cell proliferation inhibition, read-out: IC50 (μM) Huh7
Description: (§2) The antibodies recognizing LC3, p62/SQSTM1, RalA, RalB, and GAPDH were purchased from Proteintech (Wuhan, China). HCC cell lines, including HepG2, Hep3B, Huh-7, and SMMC-7721, were obtained from the Chinese Center for Type Culture Collection (Wuhan, China) and cultured in DMEM (Dulbecco’s modified Eagle’s medium) with 10% FBS (fetal bovine serum) and streptomycin. Cytotoxicity assays were performed by using the MTT method as previously described.
as §1

HepG2 cells = assay: Cell proliferation assay (MTT), HepG2; assay type: cell-based; settings: Homo sapiens, HepG2, Table 1, cell proliferation inhibition; read-out: IC50 (μM) HepG2
Description: as §2, §1

| Compound | melting point [°C] | remaining activity at 1 µM (RalB) [%] | remaining activity at 1 µM (RalA) [%] | IC50 (Huh-7 cells) [µM] | IC50 (HepG2 cells) [µM] |
| --- | --- | --- | --- | --- | --- |
| Cc1ccc(S(=O)(=O)NC2=C(C#N)C(c3ccccc3)c3c(C)nn(-c4ccccc4)c3O2)cc1 (stereo not drawn) [4a, N-(5-cyano-3-methyl-1,4-diphenyl-1,4-dihydropyrano[2,3-c]-pyrazole-6-yl)-4-methylbenzenesulfonamide] | 68.3 to 69.7 | 85 | 74 | > 10 | > 10 |
| COc1cccc(C2C(C#N)=C(NS(=O)(=O)c3cccc([N+](=O)[O-])c3)Oc3c2c(C)nn3-c2ccccc2Cl)c1 (stereo not drawn) [4aa, N-(1-(2-chlorophenyl)-5-cyano-4-(3-methoxyphenyl)-3-methyl-1,4-dihydropyrano[2,3-c]-pyrazol-6-yl)-3-nitrobenzenesulfonamide] |  | 73 | 72 | > 10 | > 10 |
| COc1cccc(C2C(C#N)=C(NS(=O)(=O)c3ccc([N+](=O)[O-])cc3)Oc3c2c(C)nn3-c2ccccc2Cl)c1 (stereo not drawn) [4ab, N-(1-(2-chlorophenyl)-5-cyano-4-(3-methoxyphenyl)-3-methyl-1,4-dihydropyrano[2,3-c]-pyrazol-6-yl)-4-nitrobenzenesulfonamide] |  | 65 | 60 | > 10 | > 10 |
| Cc1ccc(S(=O)(=O)NC2=C(C#N)C(c3ccccc3)c3c(C)nn(-c4ccc(Cl)cc4)c3O2)cc1 (stereo not drawn) [4ac, N-(1-(4-chlorophenyl)-5-cyano-3-methyl-4-phenyl-1,4-dihydropyrano[2,3-c]-pyrazol-6-yl)-4-methylbenzenesulfonamide] | 181.4 to 181.7 | 68 | 67 | > 10 | > 10 |
| Cc1ccc(S(=O)(=O)NC2=C(C#N)C(c3ccccc3)c3c(C)nn(-c4ccccc4Cl)c3O2)cc1 (stereo not drawn) [4ad, N-(1-(2-chlorophenyl)-5-cyano-3-methyl-4-phenyl-1,4-dihydropyrano[2,3-c]-pyrazol-6-yl)-4-methylbenzenesulfonamide] | 77.4 to 78 | 64 | 52 | > 10 | > 10 |
| Cc1ccc(-n2nc(C)c3c2OC(NS(=O)(=O)c2ccc(C)cc2)=C(C#N)C3c2ccccc2)cc1 (stereo not drawn) [4ae, N-(5-cyano-3-methyl-4-phenyl-1-(p-tolyl)-1,4-dihydro-pyrano[2,3-c]-pyrazol-6-yl)-4-methylbenzenesulfonamide] | 142.5 to 143 | 78 | 79 | > 10 | > 10 |
| Cc1ccc(S(=O)(=O)NC2=C(C#N)C(c3ccccc3)c3c(C)nn(-c4ccc(F)cc4)c3O2)cc1 (stereo not drawn) [4ag, N-(5-cyano-1-(4-fluorophenyl)-3-methyl-4-phenyl-1,4-dihydropyrano[2,3-c]-pyrazol-6-yl)-4-methylbenzenesulfonamide] | 138.6 to 139.3 | 75 | 66 | > 10 | > 10 |
| Cc1ccc(C2C(C#N)=C(NS(=O)(=O)c3ccc(C)cc3)Oc3c2c(C)nn3-c2ccccc2)cc1 (stereo not drawn) [4b, N-(5-cyano-3-methyl-1-phenyl-4-(p-tolyl)-1,4-dihydropyrano[2,3-c]-pyrazol-6-yl)-4-methylbenzenesulfonamide] | 74.7 to 75 | 105 | 75 | > 10 | > 10 |
| Cc1ccc(S(=O)(=O)NC2=C(C#N)C(c3cccc(Cl)c3)c3c(C)nn(-c4ccccc4)c3O2)cc1 (stereo not drawn) [4c, N-(4-(3-chlorophenyl)-5-cyano-3-methyl-1-phenyl-1,4-dihydropyrano[2,3-c]-pyrazol-6-yl)-4-methylbenzenesulfonamide] | 68.4 to 69 | 69 | 40 | > 10 | 7.28 ± 0.64 |
| Cc1ccc(S(=O)(=O)NC2=C(C#N)C(c3ccc(Br)cc3)c3c(C)nn(-c4ccccc4)c3O2)cc1 (stereo not drawn) [4d, N-(4-(4-bromophenyl)-5-cyano-3-methyl-1-phenyl-1,4-dihydropyrano[2,3-c]-pyrazol-6-yl)-4-methylbenzenesulfonamide] | 101.6 to 102.3 | 89 | 77 | > 10 | > 10 |
| Cc1ccc(S(=O)(=O)NC2=C(C#N)C(c3ccc(F)cc3)c3c(C)nn(-c4ccccc4)c3O2)cc1 (stereo not drawn) [4e, N-(5-cyano-4-(4-fluorophenyl)-3-methyl-1-phenyl-1,4-dihydropyrano[2,3-c]-pyrazol-6-yl)-4-methylbenzenesulfonamide] | 113 to 113.5 | 76 | 74 | > 10 | > 10 |
| Cc1ccc(S(=O)(=O)NC2=C(C#N)C(c3cccc(Br)c3)c3c(C)nn(-c4ccccc4)c3O2)cc1 (stereo not drawn) [4f, N-(4-(3-bromophenyl)-5-cyano-3-methyl-1-phenyl-1,4-dihydropyrano[2,3-c]-pyrazol-6-yl)-4-methylbenzenesulfonamide] | 68.4 to 69.5 | 71 | 47 | > 10 | 8.83 ± 0.75 |
| Cc1ccc(S(=O)(=O)NC2=C(C#N)C(c3ccc(Cl)c(Cl)c3)c3c(C)nn(-c4ccccc4)c3O2)cc1 (stereo not drawn) [4g, N-(5-cyano-4-(3,4-dichlorophenyl)-3-methyl-1-phenyl-1,4-dihydropyrano[2,3-c]-pyrazol-6-yl)-4-methylbenzenesulfonamide] |  | 58 | 66 | > 10 | > 10 |
| Cc1ccc(S(=O)(=O)NC2=C(C#N)C(c3ccc(Br)cc3F)c3c(C)nn(-c4ccccc4)c3O2)cc1 (stereo not drawn) [4h, N-(4-(4-bromo-2-fluorophenyl)-5-cyano-3-methyl-1-phen-yl-1,4-dihydropyrano[2,3-c]-pyrazol-6-yl)-4-methylbenzenesulfonamide] | 73.6 to 77.4 | 83 | 70 | > 10 | > 10 |
| COc1ccc(C2C(C#N)=C(NS(=O)(=O)c3ccc(C)cc3)Oc3c2c(C)nn3-c2ccccc2)cc1 (stereo not drawn) [4i, N-(5-cyano-4-(4-methoxyphenyl)-3-methyl-1-phenyl-1,4-dihydropyrano[2,3-c]-pyrazol-6-yl)-4-methylbenzenesulfonamide] | 145.2 to 146 | 60 | 69 | > 10 | > 10 |
| Cc1ccc(S(=O)(=O)NC2=C(C#N)C(c3cccnc3)c3c(C)nn(-c4ccccc4Cl)c3O2)cc1 (stereo not drawn) [4t, N-(1-(2-chlorophenyl)-5-cyano-3-methyl-4-(pyridin-3-yl)-1,4-dihydropyrano[2,3-c]-pyrazol-6-yl)-4-methylbenzenesulfonamide] |  | 65 | 46 | > 10 | 8.28 ± 0.89 |
| COc1ccc(S(=O)(=O)NC2=C(C#N)C(c3cccc(OC)c3)c3c(C)nn(-c4ccccc4Cl)c3O2)cc1 (stereo not drawn) [4y, N-(1-(2-chlorophenyl)-5-cyano-4-(3-methoxyphenyl)-3-methyl-1,4-dihydropyrano[2,3-c]-pyrazol-6-yl)-4-methoxybenzenesulfonamide] |  | 73 | 54 | > 10 | > 10 |
| COc1cccc(C2C(C#N)=C(NS(=O)(=O)c3ccccc3[N+](=O)[O-])Oc3c2c(C)nn3-c2ccccc2Cl)c1 (stereo not drawn) [4z, N-(1-(2-chlorophenyl)-5-cyano-4-(3-methoxyphenyl)-3-methyl-1,4-dihydropyrano[2,3-c]-pyrazol-6-yl)-2-nitrobenzenesulfonamide] |  | 60 | 53 | > 10 | > 10 |
